Patent US20260042764A1, “COMPOSITIONS AND METHODS FOR INHIBITION OF KRAS” (TheRas, Inc., priority 2022, published 2026)

What was measured:
[1] = molecular target: T1, Avi-KRAS WT (1-169) GppNHp/RAF1 RBD-3xFLAG (52-151) (Homo sapiens, UniProt P01116); test: Raf1-KRAS WT-GppNHP disruption HTRF assay (Biological Example 1); assay type: binding
T1 construct: Avi-KRAS WT (1-169)
How it was run: (§1)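 Read-out is HTRF signal of the KRAS–RAF1 RBD complex, reported as percentage of activity relative to DMSO (100%). Protein mix and detection reagents each incubated 1 h at room temperature with 700 rpm shaking. Buffer: 50 mM Tris pH 7.5, 100 mM NaCl, 5 mM MgCl2, 0.1% BSA, 0.01% Tween, 10% DMSO.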

[2] = molecular target: T2, Avi-KRAS G12R (1-169) GppNHp/RAF1 RBD-3xFLAG (52-151) (Homo sapiens, UniProt P01116, G12R); test: Raf1-KRAS G12R-GppNHP disruption HTRF assay (Biological Example 1); assay type: binding
T2 construct: Avi-KRAS G12R (1-169)
T2 sequence (P01116 1-169 isoform P01116-2 G12R): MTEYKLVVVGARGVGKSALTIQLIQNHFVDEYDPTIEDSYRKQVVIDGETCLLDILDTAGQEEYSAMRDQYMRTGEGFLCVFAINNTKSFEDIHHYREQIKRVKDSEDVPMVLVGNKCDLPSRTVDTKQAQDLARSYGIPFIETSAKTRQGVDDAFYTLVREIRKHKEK
How it was run: as §1

[3] = molecular target: T3, Avi-KRAS G12D (1-169) GppNHp/RAF1 RBD-3xFLAG (52-151) (Homo sapiens, UniProt P01116, G12D); test: Raf1-KRAS G12D-GppNHP disruption HTRF assay (Biological Example 1); assay type: binding
T3 construct: Avi-KRAS G12D (1-169)
T3 sequence (P01116 1-169 isoform P01116-2 G12D): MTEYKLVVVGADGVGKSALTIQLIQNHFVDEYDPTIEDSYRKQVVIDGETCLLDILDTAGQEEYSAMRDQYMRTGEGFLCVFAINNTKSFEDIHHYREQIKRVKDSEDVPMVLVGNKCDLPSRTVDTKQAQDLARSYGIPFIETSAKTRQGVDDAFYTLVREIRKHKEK
How it was run: as §1

[4] = test system: SW620 cells (KRAS G12V); test: Cell-based pERK HTRF assay in SW620 cell (Biological Example 4); details: Homo sapiens, SW-620, SW620 (KRAS G12V) cells, pERK HTRF
How it was run: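 SW620 (KRAS G12V) cells seeded at 3×10^4/well in RPMI, 10% FBS, then treated next day for 4 h with a 9-point half-log series from 1 μM top (0.25% DMSO). Lysates analyzed for pERK by HTRF (Eu cryptate/d2 antibodies, 4–24 h at room temperature), excitation 320 nm, emission 615 nm.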

[5] = test system: GP2d cells (KRAS G12D); test: Cell-based pERK HTRF assay in GP2d cell (Biological Example 2); details: GP2d (KRAS G12D) cells, pERK HTRF
How it was run: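 GP2d (KRAS G12D) cells were plated in DMEM/10% FBS and treated the next day for 60 min with compounds. Dosing used 9-point half-log series starting at 1 μM or 100 nM in 0.25% DMSO. Lysates were read by HTRF pERK (d2/Eu cryptate antibodies) after 4–24 h at room temperature, with excitation at 320 nm and emission at 615 nm.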

[6] = molecular target: T4, Avi-KRAS G12V (1-169) GppNHp/RAF1 RBD-3xFLAG (52-151) (Homo sapiens, UniProt P01116, G12V); test: Raf1-KRAS G12V-GppNHP disruption HTRF assay (Biological Example 1); assay type: binding
T4 construct: Avi-KRAS G12V (1-169)
T4 sequence (P01116 1-169 isoform P01116-2 G12V): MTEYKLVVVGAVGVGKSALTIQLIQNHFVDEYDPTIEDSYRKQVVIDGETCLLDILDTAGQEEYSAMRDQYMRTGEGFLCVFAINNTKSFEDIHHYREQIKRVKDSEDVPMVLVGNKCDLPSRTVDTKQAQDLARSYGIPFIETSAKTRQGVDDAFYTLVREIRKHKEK
How it was run: as §1

[7] = KRAS WT, GppNHp-loaded, class symbols
[8] = KRAS G12R, GppNHp-loaded, class symbols
[9] = KRAS G12D, GppNHp-loaded, class symbols
[10] = KRAS G12V, GppNHp-loaded, class symbols

T1 sequence (P01116 1-169 isoform P01116-2): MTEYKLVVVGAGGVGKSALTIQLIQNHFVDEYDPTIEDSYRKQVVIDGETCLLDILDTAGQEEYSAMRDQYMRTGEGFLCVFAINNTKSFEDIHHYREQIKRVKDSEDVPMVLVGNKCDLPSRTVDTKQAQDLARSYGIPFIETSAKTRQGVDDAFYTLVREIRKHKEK

Compound | IC50 ([1]; KRAS WT-GppNHp/RAF1 RBD HTRF) | IC50 ([2]; KRAS G12R-GppNHp/RAF1 RBD HTRF) | IC50 ([3]; KRAS G12D-GppNHp/RAF1 RBD HTRF) | IC50 [4] | IC50 ([5]; GP2d) | IC50 ([6]; KRAS G12V-GppNHp/RAF1 RBD HTRF) | IC50 ([1]; KRAS WT, GppNHp-loaded, Table 11) | IC50 ([2]; KRAS G12R, GppNHp-loaded, Table 11) | IC50 ([3]; KRAS G12D, GppNHp-loaded, Table 11) | IC50 [5] | IC50 ([6]; KRAS G12V, GppNHp-loaded, Table 11) | IC50 [1, 7] | IC50 [2, 8] | IC50 [3, 9] | IC50 ([4]; class symbols) | IC50 ([5]; GP2d, class symbols) | IC50 [6, 10]
CCN(c1nc(OC[C@@]23CCCN2C[C@H](F)C3)nc2c(F)c(-c3ccc(F)c4sc(N)c(C#N)c34)c(C(F)(F)F)cc12)[C@H]1CCN(C(=O)C(C)(C)C)C1 (atropisomer, axis not shown) [Compound 562] | < 100 nM | < 100 nM | < 100 nM | < 100 nM | < 100 nM | 100 to 1000 nM | – | – | – | – | – | – | – | – | – | – | –
CC(=O)N1C[C@@H]2CC[C@H]1CN2c1nc(OC[C@@]23CCCN2C[C@H](F)C3)nc2c(F)c(-c3ccc(F)c4sc(N)c(C#N)c34)c(C(F)(F)F)cc12 [Compound 455] | 100 to 1000 nM | 100 to 1000 nM | 100 to 1000 nM | 100 to 1000 nM | < 100 nM | 1000 to 10000 nM | – | – | – | – | – | – | – | – | – | – | –
CCN(C)c1nc(OC[C@@]23CCCN2C[C@H](F)C3)nc2c(F)c(-c3ccc(F)c4sc(N)c(C#N)c34)c(C(F)(F)F)cc12 (single isomer, unassigned) [Compound 196] | – | – | – | < 100 nM | – | – | < 100 nM | < 100 nM | < 100 nM | < 100 nM | 100 to 1000 nM | – | – | – | – | – | –
C/C=C\C(=O)N1CC[C@@H](N(C)c2nc(OC[C@@]34CCCN3C[C@H](F)C4)nc3c(F)c(-c4ccc(F)c5sc(N)c(C#N)c45)c(C(F)(F)F)cc23)[C@H]1C [Compound 672] | – | – | – | – | – | – | – | – | – | – | – | 100 to 1000 nM | 100 to 1000 nM | 100 to 1000 nM | < 100 nM | < 100 nM | 100 to 1000 nM
CCN(c1nc(OC[C@@]23CCCN2C[C@H](F)C3)nc2c(F)c(-c3ccc(F)c4sc(N)c(C#N)c34)c(C(F)(F)F)cc12)[C@@H]1CCN(C(C)=O)[C@H]1C [Compound 414] | 100 to 1000 nM | 100 to 1000 nM | 100 to 1000 nM | 100 to 1000 nM | < 100 nM | 100 to 1000 nM | – | – | – | – | – | – | – | – | – | – | –

Now from value to molecule:

IC50 ([1]; KRAS WT-GppNHp/RAF1 RBD HTRF) | IC50 ([2]; KRAS G12R-GppNHp/RAF1 RBD HTRF) | IC50 ([3]; KRAS G12D-GppNHp/RAF1 RBD HTRF) | IC50 [4] | IC50 ([5]; GP2d) | IC50 ([6]; KRAS G12V-GppNHp/RAF1 RBD HTRF) | IC50 ([1]; KRAS WT, GppNHp-loaded, Table 11) | IC50 ([2]; KRAS G12R, GppNHp-loaded, Table 11) | IC50 ([3]; KRAS G12D, GppNHp-loaded, Table 11) | IC50 [5] | IC50 ([6]; KRAS G12V, GppNHp-loaded, Table 11) | IC50 [1, 7] | IC50 [2, 8] | IC50 [3, 9] | IC50 ([4]; class symbols) | IC50 ([5]; GP2d, class symbols) | IC50 [6, 10] | Compound
100 to 1000 nM | 100 to 1000 nM | 100 to 1000 nM | < 100 nM | < 100 nM | 100 to 1000 nM | – | – | – | – | – | – | – | – | – | – | – | C[C@@H]1Cn2nncc2CN1c1nc(OC[C@@]23CCCN2C[C@H](F)C3)nc2c(F)c(-c3ccc(F)c4sc(N)c(C#N)c34)c(C(F)(F)F)cc12 (atropisomer, axis not shown) [Compound 530]
100 to 1000 nM | 100 to 1000 nM | 100 to 1000 nM | < 100 nM | < 100 nM | 100 to 1000 nM | – | – | – | – | – | – | – | – | – | – | – | CC(=O)N1C[C@@H](N(C)c2nc(OC[C@@]34CCCN3C[C@H](F)C4)nc3c(F)c(-c4ccc(F)c5sc(N)c(C#N)c45)c(C(F)(F)F)cc23)C[C@@H]1CF [Compound 454]
100 to 1000 nM | 100 to 1000 nM | 100 to 1000 nM | < 100 nM | < 100 nM | 100 to 1000 nM | – | – | – | – | – | – | – | – | – | – | – | CCN(c1nc(OC[C@@]23CCCN2C[C@H](F)C3)nc2c(F)c(-c3ccc(F)c4sc(N)c(C#N)c34)c(C(F)(F)F)cc12)[C@H]1CC(=O)N(C)C1 [Compound 482]
< 100 nM | > 10000 nM | 1000 to 10000 nM | < 100 nM | < 100 nM | 1000 to 10000 nM | – | – | – | – | – | – | – | – | – | – | – | CN(C)C(=O)c1nc2c(s1)CN(c1nc(OCC34CCCN3CC(F)C4)nc3c(F)c(-c4ccc(F)c5sc(N)c(C#N)c45)c(C(F)(F)F)cc13)CC2 (stereo not drawn) [Compound 404]
– | – | – | – | – | – | – | – | – | – | – | < 100 nM | < 100 nM | < 100 nM | < 100 nM | < 100 nM | < 100 nM | CCN(c1nc(OC[C@@]23CCCN2C[C@H](F)C3)nc2c(F)c(-c3ccc(F)c4sc(N)c(C#N)c34)c(C(F)(F)F)cc12)[C@H]1CCN(C(=O)c2cnco2)C1 (atropisomer, axis not shown) [Compound 708]
100 to 1000 nM | 100 to 1000 nM | 100 to 1000 nM | < 100 nM | < 100 nM | 100 to 1000 nM | – | – | – | – | – | – | – | – | – | – | – | N#Cc1c(N)sc2c(F)ccc(-c3c(C(F)(F)F)cc4c(N5CC6OCC5C6F)nc(OC[C@@]56CCCN5C[C@H](F)C6)nc4c3F)c12 (stereo partly drawn) [Compound 531]
